Data taken from publication PMC3509069, “A DKP Cyclo(L-Phe-L-Phe) Found in Chicken Essence Is a Dual Inhibitor of the Serotonin Transporter and Acetylcholinesterase” (PLoS ONE, 2012).

Target: T1, acetylcholinesterase (AChE) (Homo sapiens, UniProt P22303)
T1 construct: amphiphilic form from human erythrocytes
Test: colorimetric AChE assay with MATP+ substrate
Assay type: biochemical

T1 sequence (P22303 other isoform, or with tags, fused parts or gaps): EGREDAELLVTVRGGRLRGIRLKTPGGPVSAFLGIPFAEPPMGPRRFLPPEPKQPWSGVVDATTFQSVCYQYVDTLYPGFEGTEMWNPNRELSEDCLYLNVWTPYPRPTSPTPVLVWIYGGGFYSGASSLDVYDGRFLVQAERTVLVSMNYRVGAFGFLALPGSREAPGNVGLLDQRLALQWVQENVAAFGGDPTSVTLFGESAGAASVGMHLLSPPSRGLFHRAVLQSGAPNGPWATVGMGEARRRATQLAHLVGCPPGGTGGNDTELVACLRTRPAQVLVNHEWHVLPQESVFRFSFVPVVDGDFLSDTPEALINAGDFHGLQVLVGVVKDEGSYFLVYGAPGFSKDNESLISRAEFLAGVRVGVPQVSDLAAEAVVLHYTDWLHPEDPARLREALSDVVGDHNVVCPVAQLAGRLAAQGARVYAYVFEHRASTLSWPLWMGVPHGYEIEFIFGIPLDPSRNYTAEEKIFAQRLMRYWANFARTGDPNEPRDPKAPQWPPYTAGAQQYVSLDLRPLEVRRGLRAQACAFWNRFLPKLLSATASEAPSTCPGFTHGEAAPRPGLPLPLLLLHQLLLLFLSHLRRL

SMILES | IC50 [µM]
O=C1NC(Cc2ccccc2)C(=O)NC1Cc1ccccc1 [cyclo(L-Phe-L-Phe)] | ~3.4
O=C1[C@@H]2CCCN2C(=O)[C@@H]2CCCN12 [cyclo(L-Pro-L-Pro)] | 160
